Assay results published in patent US20240307374A1, “FORMULATION OF FURIN INHIBITOR FOR INHALATION” (BP ASSET V, INC., priority 2021, published 2024).
Converted amounts (≈) assume the structure as drawn. Marks after values point to notes of the source that are not given here.

Experiments:
Assay type in all cases: physicochemical
[1] = Solubility of freeform in acetone/H2O systems with various water activities; details: for solubility at 2 days: thermodynamic from solid
Method: To measure the solubility of freeform in acetone/H2O systems with various water activities, the above experiments were re-performed with addition of aw=0.3 acetone/H2O system. The suspension sample was centrifuged to obtain precipitate and supernatants. Solubility was tested for the supernatants after filtration, and isolated precipitate was tested by XRPD.

[2] = Equilibrium solubility in pH buffers (pH 4.0-6.0) with pH adjustment; details: for S: solubility: RT, with pH adjustment
Method: In details, ˜5 mg of solids were suspended into 1 mL of each medium with dosing conc. at ˜5 mg/mL. Additional solids were added into the sample to generate suspension if clear solution was obtained. The suspension was equilibrated via stirring (1000 rpm) for 24 hours. The pH of the suspension was adjusted when the final pH shifted above 0.3, and the samples were stirred for another 1.5 hours after pH adjustment. The suspension was centrifuged to obtain precipitate and supernatants. Solubility, purity and pH were tested for the supernatants after filtration, and isolated precipitate was tested by XRPD.
• 1. pH=3.0 buffer (50 mM HCl+KCl): Weigh 365.39 mg KCl into a 100 mL volumetric flask (VF), and add 0.1 mL 1M HCl into the VF, and dilute to volume with water. • 2. pH=4.0 buffer (50 mM citrate): Weigh 56.74 mg citric acid and 60.18 mg trisodium citrate into a 10 mL volumetric flask, and dilute to volume with water. • 3. pH=5.0 buffer (50 mM citrate) Weigh 11.12 mg citric acid and 95.38 mg trisodium citrate into a 10 mL volumetric flask, and dilute to volume with water. • 4. pH=6.0 buffer (50 mM citrate) Weigh 11.04 mg citric acid and 130.2 mg trisodium citrate into a 10 mL volumetric flask, and dilute to volume with water. • 5. pH=6.0 buffer (50 mM phosphate) Weigh 8.7 mg Na2HPO4 and 52.6 mg NaH2PO4 into a 10 mL volumetric flask, and dilute to volume with water. • 6. pH=7.0 buffer (50 mM phosphate) Weigh 23.47 mg Na2HPO4 and 43.34 mg NaH2PO4into a 10 mL volumetric flask, and dilute to volume with water. • 7. pH=8.0 buffer (50 mM phosphate) Weigh 31.64 mg Na2HPO4 and 67.18 mg NaH2PO4into a 10 mL volumetric flask, and dilute to volume with water.

[3] = Complexation stability constant test: solubility in SBECD solutions; details: for solubility at 24 h: thermodynamic from solid
Method: Additional solid was added into the sample to generate suspension if clear solution was obtained. The suspension was equilibrated via stirring (1000 rpm) for 24 hours. The suspension was centrifuged to obtain precipitate and supernatants. Solubility and pH was determined for the supernatants after filtration, and XRPD was obtained for the isolated precipitate.

[4] = In situ salt solubility test (citric acid, fumaric acid); details: for solubility: filtrate, read-out: Concentration (in situ salt solubility)
Source text: The sample was almost clear (little solid was observed) and filtered for a solubility test.

Solid state stability = test: Solid state stability; design: key to FC (form change): N: The form was not changed; details: for Purity: initial purity 99.62%
Method: Approximately 30 mg of each solid sample was added to an HPLC vial (sealed by Parafilm© and poked with several pinholes) and then stored at 25° C./60% RH, 40° C./75% RH and 60° C. for 28 days.
After 1/3/7/14/28 days storage, solids were taken out for HPLC and XRPD to evaluate chemical and physical stability, respectively.

[5] = Equilibrium solubility of freeform Type D in pH=4.0 and 5.0 citrate/phosphate buffers; details: for Form: XRPD of precipitate; for Form / solubility at 24 h / End pH (24 hours): citrate/phosphate buffer; for Form / solubility at 24 h / solid form after equilibrium (XRPD): 24 hours; for solubility at 24 h: aqueous buffer, thermodynamic from solid; for solid form after equilibrium (XRPD): RT
Method: The suspension was equilibrated via stirring (1000 rpm) for 24 hours. The suspension was centrifuged to obtain precipitate and supernatants. Solubility and pH were tested for the supernatants after filtration, and isolated precipitate was tested by XRPD.

[6] = Formulation development with NaCl; details: ~35 mg freeform Type D + ~9.6 mg citric acid + ~6.1 mg NaCl in water
Method: The concentration of freeform in the suspension was 0.60 mg/mL (pH 3.8). […] The experiment was redone, and a clear solution (a little cloudy) was obtained immediately after adding 1 mL water into ˜32 mg/mL API+9.6 mg/mL critic acid, solid precipitated out after addition of NaCl.

[7] = pH = 4.0 buffer (50 mM citrate)
[8] = pH = 5.0 buffer (50 mM citrate)
[9] = pH = 6.0 buffer (50 mM citrate)
[10] = pH = 6.0 buffer (50 mM phosphate)
[11] = 1.1 equiv. of citric acid in water
[12] = 1.1 equivalent of fumaric acid in water

Compound: CC(=O)NCC1CCN(Cc2cc(Oc3ccc(N4CCN(CCC(=O)O)CC4)nc3)nc(-c3cc(Cl)cc(Cl)c3)c2)CC1 [Freeform Type A]
- solubility ([1]; Acetone/H2O (605:395), aw 0.8, RT): 10.265 (Type A) mg/mL
- solubility at 2 days ([1]; acetone/H2O (605:395), aw 0.8, organic solvent or mixture, Acetone/H2O (605:395), aw 0.8, RT): 10300 µg/mL (≈ 16100 µM)
- solubility at 2 days ([1]; acetone/H2O (858:142), aw 0.6, organic solvent or mixture, Acetone/H2O (858:142), aw 0.6, RT): 3290 µg/mL (≈ 5120 µM)
- solubility at 2 days ([1]; acetone/H2O (950:50), aw 0.4, organic solvent or mixture, Acetone/H2O (950:50), aw 0.4, RT): 1160 µg/mL (≈ 1800 µM)
- solubility at 2 days ([1]; acetone/H2O (973:27), aw 0.3, organic solvent or mixture, Acetone/H2O (973:27), aw 0.3, RT): 1440 µg/mL (≈ 2240 µM)
- solubility at 2 days ([1]; water (aw 1), water, H2O, aw 1, RT): 10 µg/mL (≈ 15.6 µM)
- form change after equilibrium in all media ([2]; all media, 24 hours): No form change
- Area % (purity of supernatant) [2, 7]: 99.9 Area %
- pH (final, after adjustment where adjusted) [2, 7]: 4.2*
- pH before adjustment (in brackets) ([2]; pH = 4.0 buffer (50 mM citrate), 24 hours): (5.0)
- S: solubility [2, 7]: >36.9^# mg/mL
- Area % (purity of supernatant) [2, 8]: 99.6 Area %
- FC: form change (XRPD of precipitate) [2, 8]: N (N: solid form not changed)
- pH (final, after adjustment where adjusted) [2, 8]: 5.2
- S: solubility [2, 8]: 3.31 mg/mL
- Area % (purity of supernatant) [2, 9]: 99.6 Area %
- FC: form change (XRPD of precipitate) [2, 9]: N (N: solid form not changed)
- pH (final, after adjustment where adjusted) [2, 9]: 6.0
- S: solubility [2, 9]: 0.15 mg/mL
- Area % (purity of supernatant) [2, 10]: 99.3 Area %
- FC: form change (XRPD of precipitate) [2, 10]: N (N: solid form not changed)
- pH (final, after adjustment where adjusted) [2, 10]: 6.0
- S: solubility [2, 10]: 0.11 mg/mL

Compound: CC(=O)NCC1CCN(Cc2cc(Oc3ccc(N4CCN(CCC(=O)O)CC4)nc3)nc(-c3cc(Cl)cc(Cl)c3)c2)CC1 [Freeform Type D]
- solubility at 24 h ([3]; 5% (w/w) SBECD solution, aqueous with cosolvent or surfactant or cyclodextrin, 5% (w/w) SBECD, RT, 24 hours, final pH 7.8, read-out: Solubility): 2610 µg/mL
- solubility at 24 h ([3]; 5% (w/w) SBECD solution, pH 7.8, aqueous with cosolvent or surfactant or cyclodextrin, 5% SBECD (54.23 mmol/L), read-out: API Solubility): 4.07 mM
- solubility at 24 h ([3]; 10% (w/w) SBECD solution, aqueous with cosolvent or surfactant or cyclodextrin, 10% (w/w) SBECD, RT, 24 hours, final pH 7.9, read-out: Solubility): 6470 µg/mL
- solubility at 24 h ([3]; 10% (w/w) SBECD solution, pH 7.9, aqueous with cosolvent or surfactant or cyclodextrin, 10% SBECD (108.46 mmol/L), read-out: API Solubility): 10.1 mM
- solubility at 24 h ([3]; 15% (w/w) SBECD solution, aqueous with cosolvent or surfactant or cyclodextrin, 15% (w/w) SBECD, RT, 24 hours, final pH 7.9, read-out: Solubility): 8810 µg/mL
- solubility at 24 h ([3]; 15% (w/w) SBECD solution, pH 7.9, aqueous with cosolvent or surfactant or cyclodextrin, 15% SBECD (162.70 mmol/L), read-out: API Solubility): 13.7 mM
- solubility at 24 h ([3]; 20% (w/w) SBECD solution, aqueous with cosolvent or surfactant or cyclodextrin, 20% (w/w) SBECD, RT, 24 hours, final pH 7.9, read-out: Solubility): 9350 µg/mL
- solubility at 24 h ([3]; 20% (w/w) SBECD solution, pH 7.9, aqueous with cosolvent or surfactant or cyclodextrin, 20% SBECD (216.93 mmol/L), read-out: API Solubility): 14.6 mM
- solubility at 24 h ([3]; 25% (w/w) SBECD solution, aqueous with cosolvent or surfactant or cyclodextrin, 25% (w/w) SBECD, RT, 24 hours, final pH 7.9, read-out: Solubility): 11000 µg/mL
- solubility at 24 h ([3]; 25% (w/w) SBECD solution, pH 7.9, aqueous with cosolvent or surfactant or cyclodextrin, 25% SBECD (271.16 mmol/L), read-out: API Solubility): 17.1 mM
- form change during solubility evaluation (XRPD) ([3]; SBECD solutions, 24 hours): No form change
- complexation stability constant K^1:1 ([3]; SBECD, Higuchi-Connors phase-solubility method): 3831 M⁻¹
- HPLC purity of filtrates [4, 11]: 99.9% Area %
- pH [4, 11]: 3.4
- HPLC purity of filtrates [4, 12]: 99.8% Area %
- pH [4, 12]: 4.0
- solubility ([4]; water with 1.1 equivalent of citric acid, pH 3.4, thermodynamic from solid, 1.1 equiv. of citric acid in water): 39300 µg/mL
- solubility ([4]; water with 1.1 equivalent of fumaric acid, pH 4, thermodynamic from solid, 1.1 equivalent of fumaric acid in water): 1100 µg/mL
- degradation or form change (HPLC, XRPD) (Solid state stability; 25° C./60% RH, 40° C./75% RH and 60° C. for 28 days): No significant degradation or form change
- FC (form change) (Solid state stability; 25° C./60% RH, 28 days): N
- Purity (Solid state stability; 25° C./60% RH, 28 days): 99.6 area %
- FC (form change) (Solid state stability; 40° C./75% RH, 1 day): N
- Purity (Solid state stability; 40° C./75% RH, 1 day): 99.69 area %
- FC (form change) (Solid state stability; 40° C./75% RH, 3 days): N
- Purity (Solid state stability; 40° C./75% RH, 3 days): 99.56 area %
- FC (form change) (Solid state stability; 40° C./75% RH, 7 days): N
- Purity (Solid state stability; 40° C./75% RH, 7 days): 99.59 area %
- FC (form change) (Solid state stability; 40° C./75% RH, 14 days): N
- Purity (Solid state stability; 40° C./75% RH, 14 days): 99.69 area %
- FC (form change) (Solid state stability; 40° C./75% RH, 28 days): N
- Purity (Solid state stability; 40° C./75% RH, 28 days): 99.73 area %
- FC (form change) (Solid state stability; 60° C., 1 day): N
- Purity (Solid state stability; 60° C., 1 day): 99.74 area %
- FC (form change) (Solid state stability; 60° C., 3 days): N
- Purity (Solid state stability; 60° C., 3 days): 99.57 area %
- FC (form change) (Solid state stability; 60° C., 7 days): N
- Purity (Solid state stability; 60° C., 7 days): 99.51 area %
- FC (form change) (Solid state stability; 60° C., 14 days): N
- Purity (Solid state stability; 60° C., 14 days): 99.62 area %
- FC (form change) (Solid state stability; 60° C., 28 days): N
- Purity (Solid state stability; 60° C., 28 days): 99.66 area %
- Form ([5]; initial pH 4.0, RT): Low crystallinity*
- Form ([5]; initial pH 5.0, RT): Freeform Type D
- solubility at 24 h ([5]; initial pH 4.0, RT): 30600 µg/mL (≈ 47700 µM)
- solubility at 24 h ([5]; initial pH 5.0, RT): 1290 µg/mL (≈ 2010 µM)
- End pH (24 hours) ([5]; initial pH 4.0, RT): 5.2
- End pH (24 hours) ([5]; initial pH 5.0, RT): 5.2
- solid form after equilibrium (XRPD) ([5]; pH=4.0 citrate/phosphate): Low crystallinity sample
- solid form after equilibrium (XRPD) ([5]; pH=5.0 citrate/phosphate): no form change
- pH ([6]; 24 hours): 3.8
- concentration of freeform in the suspension ([6]; 24 hours stirring): 600 µg/mL
